Experimental data: US20100216779A1 (GLAXOSMITHKLINE LLC, priority 2007, published 2010)

Experiments:
[1] = system: BT474 cell tumors (breast carcinoma cell line); assay: In vivo efficacy, BT474 tumor bearing mice; design: species or system mouse
Experimental: (§1) In addition to the LISN xenograft efficacy studies, Example 57 has also been assessed in vivo in two other mouse models of cancer, including: Colo-205 tumor bearing mice (colon carcinoma cell line) and BT474 tumor bearing mice (breast carcinoma cell line). Forty female nude mice bearing Colo-205 tumors (average tumor size of 200 mm3) were randomized into five groups of eight mice and dosed with either vehicle (20% SBE pH3.5) or Example 57 at 100, 30, 10 mg/kg QD or 30 mg/kg BID for 21 days. The groups of mice dosed with the higher doses of Example 57 (100 mg/kg QD and 30 mg/kg BID) lost greater than 20% body weight within 10 days of dosing so were taken off the study and allowed to recover. […] The higher doses of 100 mg/kg QDx10 and 30 mg/kg BIDx10 achieved 72 and 49% tumor growth inhibition respectively.
Due to the body weight loss seen with the higher doses in the Colo-205 xenograft efficacy study, the dosing regime was altered for the follow up BT474 study. Forty female nude mice bearing subcutaneous BT474 cell tumors (average tumor size of 200 mm3) were randomized into five groups each containing eight mice and dosed with either vehicle (20% SBE pH3.5) or Example 57 at 60, 30 or 15 mg/kg QD or 15 mg/kg BID for 21 days. Note the maximal QD dose was reduced from 100 mg/kg to 60 mg/kg and the BID dose reduced from 30 mg/kg to 15 mg/kg. In addition to these changes the mice in this study were given weekend holidays from dosing.

[2] = system: LISN cell (mouse 3T3 fibroblasts transduced with human IGF-1R) tumors; assay: In vivo efficacy, mice bearing LISN cell tumors; details: LISN
Experimental: E. In Vivo Efficacy—Mouse Models
The efficacy of the compounds of Examples 57 and 58 were assessed together in an in vivo efficacy experiment performed on mice bearing LISN cell (mouse 3T3 fibroblasts transduced with human IGF-1R) tumors. Fifty six female nude mice bearing subcutaneous LISN cell tumors were measured for tumor size and body weight and block randomized into seven groups of eight mice with an equal average tumor volume of approximately 200 mm3. Mice were dosed with either vehicle (20% SBE pH3.5), Example 57 or Example 58. The dosing schedules for each compound were based on previous experiments with the compounds and doses chosen to give the highest tumor growth inhibition and a dose response. Example 58 was dosed at 30, 100 and 300 mg/kg QD for 21 days while Example 57 was dosed at 30 mg/kg QD for 21 days, 15 mg/kg BID for 21 days and 30 mg/kg QDx3 days/week for 3 weeks.
The tumors on mice being treated with vehicle grew with the expected exponential growth throughout the 21 day study. […] The lower dose of 30 mg/kg of Example 58 achieved 28% tumor growth inhibition.
The efficacy of the compounds of Examples 237 and 219 were assessed together in an in vivo efficacy experiment performed on mice bearing LISN cell (mouse 3T3 fibroblasts transduced with human IGF-1R) tumors. Sixty four female nude mice bearing subcutaneous LISN cell tumors were measured for tumor size and body weight and block randomized into eight groups of eight mice with an equal average tumor volume of approximately 362 mm^3. Mice were dosed with either vehicle (20% SBE pH3.5), Example 237 or Example 219. The dosing schedules for each compound were based on previous experiments with the compounds and doses chosen to give the highest tumor growth inhibition and a dose response. Example 237 was administered at 30 and 60 mg/kg QD for 21 days and 30 mg/kg BID for 21 days while Example 219 was administered at 50 and 100 mg/kg QD for 21 days, 25 and 50 mg/kg BID for 21 days.
The tumors on mice being treated with vehicle grew with the expected exponential growth throughout the 21 day study. […] The lower dose of 30 mg/kg QD of Example 237 achieved 15% tumor growth inhibition at day 21 (note: 2 animals were euthanized prior to the last measurement). […] This recovered to 3% by the end of dosing and fully recovered after dosing was concluded. […] This recovered fully within 4 days after the completion of dosing.

[3] = system: Colo-205 tumors (colon carcinoma cell line); assay: In vivo efficacy, Colo-205 tumor bearing mice; design: species or system mouse
Experimental: as §1

What does the source list for COc1cc(N2CCC(N3CCN(CCF)CC3)CC2)ccc1Nc1nccc(-c2c(-c3cccc(C(=O)Nc4c(F)cccc4F)c3)nc3ccccn23)n1 [Example 57, N-(2,6-difluorophenyl)-3-[3-(2-{[4-{4-[4-(2-fluoroethyl)-1-piperazinyl]-1-piperidinyl}-2-(methyloxy)phenyl]amino}-4-pyrimidinyl)imidazo[1,2-a]pyridin-2-yl]benzamide]?
tumor growth inhibition ([1]; BT474, 15 mg/kg BIDx21, weekend holidays from dosing): 54%; tumor growth inhibition ([1]; BT474, 30 mg/kg QDx21, weekend holidays from dosing): 37%; tumor growth inhibition ([1]; BT474, 60 mg/kg QDx21, weekend holidays from dosing): 37%; body weight loss ([1]; BT474, all groups): no body weight loss; tumor growth inhibition ([1]; BT474, third QDx21 dose group (15 mg/kg QD per study design), weekend holidays from dosing): 16%; tumor growth inhibition ([2]; 15 mg/kg BID for 21 days): 50%; body weight loss ([2]; 30 mg/kg QD and 15 mg/kg BID treated groups): no body weight loss; tumor growth inhibition ([2]; 30 mg/kg QD for 21 days): 34%; tumor growth inhibition ([2]; 30 mg/kg QDx3 days/week for 3 weeks): 69%; body weight loss ([2]; 30 mg/kg QDx3 days/week for 3 weeks, over the three consecutive days of dosing, recovered in between doses): significant body weight loss; tumor growth inhibition ([3]; Colo-205, 10 mg/kg QDx21): 17%; tumor growth inhibition ([3]; Colo-205, 30 mg/kg BIDx10): 49%; tumor growth inhibition ([3]; Colo-205, 30 mg/kg QDx21): 40%; body weight lost ([3]; Colo-205, 100 mg/kg QD and 30 mg/kg BID, within 10 days of dosing): greater than 20%; tumor growth inhibition ([3]; Colo-205, 100 mg/kg QDx10): 72%; body weight loss ([3]; Colo-205, 30 and 10 mg/kg QDx21): no body weight loss
